Biological target: T1, ATF6 (Homo sapiens, UniProt P18850)
T1 construct: endogenous in cells; host or cells: U2-OS (ATCC HTB-96) stably transduced with the Cignal Lenti ATF6 luc reporter (Qiagen #CLS-6031L)
T1 sequence (P18850 1-670): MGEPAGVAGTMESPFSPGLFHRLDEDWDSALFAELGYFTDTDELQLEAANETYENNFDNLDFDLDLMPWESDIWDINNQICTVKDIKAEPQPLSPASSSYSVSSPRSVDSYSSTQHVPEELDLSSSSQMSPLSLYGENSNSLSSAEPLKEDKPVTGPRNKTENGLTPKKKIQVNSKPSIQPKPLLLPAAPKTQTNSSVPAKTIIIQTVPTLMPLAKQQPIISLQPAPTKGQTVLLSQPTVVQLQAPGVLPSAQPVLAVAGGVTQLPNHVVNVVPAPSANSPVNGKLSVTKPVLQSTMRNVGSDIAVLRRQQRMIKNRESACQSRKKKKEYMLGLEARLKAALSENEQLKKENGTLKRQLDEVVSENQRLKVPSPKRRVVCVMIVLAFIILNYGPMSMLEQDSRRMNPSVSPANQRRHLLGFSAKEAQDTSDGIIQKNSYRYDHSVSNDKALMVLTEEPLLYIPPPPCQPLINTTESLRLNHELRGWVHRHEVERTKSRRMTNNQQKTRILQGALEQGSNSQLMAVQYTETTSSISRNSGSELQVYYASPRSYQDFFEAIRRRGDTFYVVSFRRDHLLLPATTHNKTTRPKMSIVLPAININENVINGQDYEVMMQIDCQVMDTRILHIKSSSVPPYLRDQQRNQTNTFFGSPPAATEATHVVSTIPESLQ
Test: ERSE ATF6-luciferase assay in presence of Tg-induced ER stress (U2-OS ATF6 TRE-luciferase reporter cells)
Format: cell-based
Conditions: in presence of ER stress (thapsigargin), Tg only = 100%; for ATF6 activity @ 1 μM [%] / activity at 1 µM: 1 μM test compound; for ATF6 activity @ 1 μM [%] / ATF6 activity @ 10 μM [%]: 8 hr; for activity at 10 µM / activity at 1 µM: U2OS, 8 h; for activity at 10 µM / ATF6 activity @ 10 μM [%]: 10 μM test compound
Method: To understand how exemplary compounds of the invention modulate the activity of ATF6 in absence or presence of endoplasmic reticulum (ER) stress, a Human bone osteosarcoma (U2-OS)-based TRE-luciferase reporter stable cell line was generated to determine the modulation of transcription of ATF6 target genes.
U2-OS cells were obtained from the American Type Culture Collection (ATCC HTB-96, ATCC Manassas, VA) and were cultured with growing medium containing Dulbecco's Modified Eagle's Medium (DMEM) (Cat. No.: SH30023.02, HyClone) supplemented with fetal bovine serum (FBS) 10% (Cat. No.: 16000044, Gibco) and 1% penicillin-streptomycin antibiotic cocktail (Cat. No.: SV30010, Hyclone).
Cignal Lenti ATF6 luc reporter (Qiagen #CLS-6031L) was used to produce a stable cell line in U2-OS cells (U2-OS ATF6 TRE-luciferase reporter). The lenti ATF6 reporter is a preparation of replication incompetent, VSV-g pseudotyped lentivirus particles expressing the firefly luciferase gene under the control of a minimal (m)CMV promoter and tandem repeats of the ATF6 transcriptional response element (TRE). The number of response elements as well as the intervening sequence between response elements has been experimentally optimized to maximize the signal to noise ratio.
Exemplary compounds of the invention and reference compounds were prepared from powder as 10 mM stock solutions in dimethyl sulfoxide (DMSO; Cat. No. #D2650, Sigma Aldrich) and stored at −80° C. in presence of N2 neutral atmosphere.
For the primary screening, 40,000 U2-OS ATF6 TRE-luciferase reporter cells were plated in poly-D-lysine (Cat. No.: P2636, Sigma) pre-coated white 96-well plates (Thermo Scientific Nunc #136101) with 100 μL of growing medium. Cells were incubated in humidified chambers for 24 hr.
For testing exemplary compounds in presence of ER-stress, cells were pre-treated for 30 min with 50 μL growing medium containing either vehicle (DMSO), 1 or 10 μM test compound. After this pre-incubation, 50 μL of a solution containing 0.2 μM of the ER stress-inducer thapsigargin (Tg) was added to the appropriate wells. The Tg solution also contains vehicle or test compounds at 1 or 10 μM as indicated. The final concentration of DMSO in each well was kept at 0.3%. Plates were incubated for 8 hr in humidified chambers.
After the 8 hr incubation, plates were cooled down to room temperature for 10 min prior to the luciferase assays. Luciferase reactions were performed using Luciferase Assay System (Cat. No.: E4550, Promega). Briefly, each well was washed with 100 μl of PBS 1× and, then, 20 μl of lysis reagent was added into each well. Plates were shaken for 10 min and, then, 50 μl of Luciferase Assay Reagent was added to each well. Luminescence was determined by integration of 1 s with a gain of 110 in a Synergy 4 Microplate reader. All measurements were carried out in triplicate.
The average activity determined from the wells containing vehicle only (DMSO, 0% of ATF6 activity) was used as blank and subtracted from the rest of measurements. The average activity determined from the wells containing Tg only was used as 100% of ATF6 activity. The percentage of modulation of exemplary compounds was calculated by normalizing values to potential maximal activation with Tg.
ATF6 activities of exemplary compounds at 1 and 10 μM in presence Tg-induced ER stress tested in the U2-OS ATF6 TRE-luciferase reporter cells were determined and are shown in Table 2-2 and Table 3-2.

| activity at 10 µM (Table 2-2) [%] | activity at 1 µM (Table 2-2) [%] | SMILES | ATF6 activity @ 1 μM [%] (Table 2-2) | ATF6 activity @ 10 μM [%] (Table 2-2) | ATF6 activity @ 1 μM [%] (Table 2-3) | ATF6 activity @ 10 μM [%] (Table 2-3) |
| --- | --- | --- | --- | --- | --- | --- |
| 75 to 100 | – | CC(c1ccc(C(F)(F)F)cc1C(F)(F)F)n1cc(C#Cc2nnc(-c3cnccn3)s2)cn1 (single isomer, unassigned) [Compound 2-21, 2-((1-(1-(2,4-bis(trifluoromethyl)phenyl)ethyl)-1H-pyrazol-4-yl)ethynyl)-5-(pyrazin-2-yl)-1,3,4-thiadiazole] | − (− refers to 75% < % activity < 100% at 1 or 10 μM) | – | – | – |
| – | – | CC(c1ccc(C(F)(F)F)cc1C(F)(F)F)n1cc(C#Cc2nnc(-c3cnccn3)s2)cn1 (single isomer, unassigned) [Compound 2-22, 2-((1-(1-(2,4-bis(trifluoromethyl)phenyl)ethyl)-1H-pyrazol-4-yl)ethynyl)-5-(pyrazin-2-yl)-1,3,4-thiadiazole] | −− (−− refers to 50% < % activity < 75% at 1 or 10 μM test compound) | − (− refers to 75% < % activity < 100% at 1 or 10 μM) | – | – |
| 50 to 75 | – | Cc1nn(C(C)c2ccc(C(F)(F)F)cc2C(F)(F)F)cc1C#Cc1nnc(-c2ccccn2)s1 (single isomer, unassigned) [Compound 2-23, 2-((1-(1-(2,4-bis(trifluoromethyl)phenyl)ethyl)-3-methyl-1H-pyrazol-4-yl)ethynyl)-5-(pyridin-2-yl)-1,3,4-thiadiazole] | − (− refers to 75% < % activity < 100% at 1 or 10 μM) | – | – | – |
| – | – | Cc1nn(C(C)c2ccc(C(F)(F)F)cc2C(F)(F)F)cc1C#Cc1nnc(-c2ccccn2)s1 (single isomer, unassigned) [Compound 2-24, 2-((1-(1-(2,4-bis(trifluoromethyl)phenyl)ethyl)-3-methyl-1H-pyrazol-4-yl)ethynyl)-5-(pyridin-2-yl)-1,3,4-thiadiazole] | −−− (−−− refers to <50% at 1 or 10 μM test compound) | −−− (−−− refers to <50% at 1 or 10 μM test compound) | – | – |
| – | – | O=C(Nc1cnn(Cc2ccc(C(F)(F)F)cc2C(F)(F)F)c1)c1cc(-c2ccco2)on1 [Ceapin-A7, reference compound] | −−− (−−− refers to <50% at 1 or 10 μM test compound) | −−− (−−− refers to <50% at 1 or 10 μM test compound) | −−− (−−− refers to <50% at 1 or 10 μM test compound) | −−− (−−− refers to <50% at 1 or 10 μM test compound) |
| – | – | CC(c1ccc(C(F)(F)F)cc1C(F)(F)F)n1cc(C#Cc2nnc(-c3ccccn3)s2)cn1 (centres unmarked) [Compound 2-1, 2-((1-(1-(2,4-bis(trifluoromethyl)phenyl)ethyl)-1H-pyrazol-4-yl)ethynyl)-5-(pyridin-2-yl)-1,3,4-thiadiazole] | −− (−− refers to 50% < % activity < 75% at 1 or 10 μM test compound) | −−− (−−− refers to <50% at 1 or 10 μM test compound) | – | – |
| < 50 | < 50 | CC(c1ccc(C(F)(F)F)cc1C(F)(F)F)n1cc(C#Cc2nnc(-c3ccccn3)s2)cn1 (centres unmarked) [Compound 2-2, 2-((1-(1-(2,4-bis(trifluoromethyl)phenyl)ethyl)-1H-pyrazol-4-yl)ethynyl)-5-(pyridin-2-yl)-1,3,4-thiadiazole] | – | – | – | – |
| 75 to 100 | 50 to 75 | FC(F)(F)c1ccc(Cn2cc(C#Cc3nnc(-c4ccccn4)s3)cn2)c(C(F)(F)F)c1 [Compound 2-4, 2-((1-(2,4-bis(trifluoromethyl)benzyl)-1H-pyrazol-4-yl)ethynyl)-5-(pyridin-2-yl)-1,3,4-thiadiazole] | – | – | – | – |
| < 50 | 100 to 125 | CC(c1ccc(C(F)(F)F)cc1C(F)(F)F)n1cc(/C=C/c2nnc(-c3ccccn3)s2)cn1 (centres unmarked) [Compound 2-5, (E)-2-(2-(1-(1-(2,4-bis(trifluoromethyl)phenyl)ethyl)-1H-pyrazol-4-yl)vinyl)-5-(pyridin-2-yl)-1,3,4-thiadiazole] | – | – | – | – |
| – | 100 to 125 | CC(c1ccc(C(F)(F)F)cc1C(F)(F)F)n1cc(/C=C\c2nnc(-c3ccccn3)s2)cn1 (centres unmarked) [Compound 2-6, (Z)-2-(2-(1-(1-(2,4-bis(trifluoromethyl)phenyl)ethyl)-1H-pyrazol-4-yl)vinyl)-5-(pyridin-2-yl)-1,3,4-thiadiazole] | – | −− (−− refers to 50% < % activity < 75% at 1 or 10 μM test compound) | – | – |
| – | – | CC(c1ccc(C(F)(F)F)cc1C(F)(F)F)n1cc(/C=C\c2nnc(-c3ccccn3)s2)cn1 (centres unmarked) [Compound 2-7, (Z)-2-(2-(1-(1-(2,4-bis(trifluoromethyl)phenyl)ethyl)-1H-pyrazol-4-yl)vinyl)-5-(pyridin-2-yl)-1,3,4-thiadiazole] | + (+ refers to 100% < % activity < 125% at 1 or 10 μM) | − (− refers to 75% < % activity < 100% at 1 or 10 μM) | – | – |
| – | – | CC(c1ccc(C(F)(F)F)cc1C(F)(F)F)n1cc(/C=C\c2nnc(-c3ccccn3)s2)cn1 (centres unmarked) [Compound 2-8, (Z)-2-(2-(1-(1-(2,4-bis(trifluoromethyl)phenyl)ethyl)-1H-pyrazol-4-yl)vinyl)-5-(pyridin-2-yl)-1,3,4-thiadiazole] | + (+ refers to 100% < % activity < 125% at 1 or 10 μM) | −− (−− refers to 50% < % activity < 75% at 1 or 10 μM test compound) | – | – |
| < 50 | 75 to 100 | CC(c1ccc(C(F)(F)F)cc1C(F)(F)F)n1cc(CCc2nnc(-c3ccccn3)s2)cn1 (centres unmarked) [Compound 2-9, 2-(2-(1-(1-(2,4-bis(trifluoromethyl)phenyl)ethyl)-1H-pyrazol-4-yl)ethyl)-5-(pyridin-2-yl)-1,3,4-thiadiazole] | – | – | – | – |
| 75 to 100 | 50 to 75 | CC(c1ccc(C(F)(F)F)cc1C(F)(F)F)n1cc(C#Cc2nnc(-c3cnccn3)s2)cn1 (centres unmarked) [Compound 2-10, 2-((1-(1-(2,4-bis(trifluoromethyl)phenyl)ethyl)-1H-pyrazol-4-yl)ethynyl)-5-(pyrazin-2-yl)-1,3,4-thiadiazole] | – | – | – | – |
| 50 to 75 | 50 to 75 | Cc1nn(C(C)c2ccc(C(F)(F)F)cc2C(F)(F)F)cc1C#Cc1nnc(-c2ccccn2)s1 (centres unmarked) [Compound 2-11, 2-((1-(1-(2,4-bis(trifluoromethyl)phenyl)ethyl)-3-methyl-1H-pyrazol-4-yl)ethynyl)-5-(pyridin-2-yl)-1,3,4-thiadiazole] | – | – | – | – |

Source: US12662478B2, “ATF6 modulators and uses thereof” (Altos Labs, Inc., priority 2019, dated 2026)
